Measured values published in publication PMC10739260, “Shape-Based Virtual Screening of a Billion-Compound Library Identifies Mycobacterial Lipoamide Dehydrogenase Inhibitors” (ACS Bio & Med Chem Au, 2023).
Where two headings read alike, the source gives them in different places.

Experiments:
Mtb Lpd [1] = biological target: T1, Mtb Lpd (Mycobacterium tuberculosis, UniProt P9WHH9); assay: Lpd enzyme assay (spectrophotometric, DTNB, lipoamide, NADH); type: biochemical; conditions: for potency improvement over des-methyl screen hit: methylated analogue vs Z1765676493 / Z819807984, Lpd IC50; for IC50: dose response 100 to 0.005 μM, values marked * from one replicate; for inhibition at 10 µM: compound at 10 μM, read-out: LPD %inh ± SD at 10 μM
T1 construct: made in house
Description: The Lpd enzyme assay was performed at a CRO with a previously reported protocol.[9],[11] Briefly, the Lpd activity was measured by a spectrophotometric assay with DTNB, lipoamide, and NADH. Final concentrations of components in the reaction mixture were as follows: 125 μM NADH, 125 μM DTNB, 40 μM NAD+, 75 μM lipoamide in 25 mM potassium phosphate, and 1 mM EDTA pH 7.0. Compounds were tested initially at 10 μM. Compounds showing significant inhibition at 10 μM were tested in dose–response from 100 to 0.005 μM by serial dilutions. Curves were fit, and IC50 values were calculated using Prism dose–response inhibition analysis (four-parameter fit).

Mtb [2] = assay: Mtb MIC assay (bacterial growth inhibition); type: cell-based, Mycobacterium tuberculosis; conditions: for Mtb MIC: Table S1, known actives used as probes in GPU Shape screen
Lpd protein = biological target: T2, Lpd protein (Mycobacterium tuberculosis, UniProt P9WHH9); assay: Surface plasmon resonance (SPR) binding to immobilized Lpd; conditions: 25 °C
T2 construct: made in house
T2 sequence (P9WHH9 1-464): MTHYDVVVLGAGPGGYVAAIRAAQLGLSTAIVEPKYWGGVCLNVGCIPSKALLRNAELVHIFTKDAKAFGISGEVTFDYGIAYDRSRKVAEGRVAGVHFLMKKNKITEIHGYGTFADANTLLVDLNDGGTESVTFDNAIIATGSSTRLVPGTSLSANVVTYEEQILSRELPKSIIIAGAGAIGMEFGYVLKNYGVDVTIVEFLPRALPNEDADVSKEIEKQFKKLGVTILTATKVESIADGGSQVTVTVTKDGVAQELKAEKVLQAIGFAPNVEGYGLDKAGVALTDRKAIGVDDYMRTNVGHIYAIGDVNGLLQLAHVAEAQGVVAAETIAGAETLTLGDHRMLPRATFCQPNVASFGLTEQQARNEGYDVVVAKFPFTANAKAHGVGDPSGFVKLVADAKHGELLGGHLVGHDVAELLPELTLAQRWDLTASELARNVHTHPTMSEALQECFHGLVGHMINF

Mtb [3] = system: Mtb; set-up: method as in PMID 33527832; conditions: Figure 1, representative sulfonamide series inhibitors; cited from earlier work
PDH complex = biological target: T3, PDH complex (Mycobacterium tuberculosis, UniProt P9WHH9); assay: PDH complex inhibition; type: biochemical
T3 sequence (P9WHH9 1-464): T2 sequence (P9WHH9 1-464)

Mtb Lpd [4] = biological target: T1, Mtb Lpd; conditions: read-out: Lpd IC50; Figure 1, representative sulfonamide series inhibitors; cited from earlier work
[5] = 1:1 Langmuir model, analyte line 013537

CC(=O)Nc1cccc(NC(=O)CN(C)S(=O)(=O)c2cc(C)cc(C(F)F)c2)c1 [1 (TDI-13537)]
potency improvement over des-methyl screen hit (Mtb Lpd [1]): 15- to 20 fold
inhibition of Mtb bacterial growth in the MIC assay (Mtb [2]; data not shown): did not show inhibition
Kd (Lpd protein; [5]): 0.241 µM
kd (Lpd protein; [5]): 0.01243 s⁻¹
Kd (Lpd protein; analyte line 013537-NADH): 0.291 µM
kd (Lpd protein; analyte line 013537-NADH): 0.01141 s⁻¹

CCN(CC(=O)Nc1ccc(N2CCOCC2)cc1)S(=O)(=O)c1cc(C)c(F)c(C(F)(F)F)c1 [Compound 2]
IC50 (Mtb Lpd [1]): 0.37 µM
potency improvement over des-methyl screen hit (Mtb Lpd [1]): 15- to 20 fold

CCOC(=O)c1c(C)n[nH]c1S(=O)(=O)N(C)CC(=O)Nc1ccc(F)cc1 [Compound Z740306332]
inhibition at 10 µM (Mtb Lpd [1]): 9.6 ± 1.8%
IC50 (Mtb Lpd [1]): 100 µM

CCN(CC(=O)Nc1ccc(N2CCOCC2)cc1)S(=O)(=O)c1ccc(F)c(C(F)(F)F)c1 [Compound Z819807984]
inhibition at 10 µM (Mtb Lpd [1]): 68.9 ± 0.9%
IC50 (Mtb Lpd [1]): 5 ± 0.04 µM

COC(=O)c1cccc(NC2CCN(C(=O)c3cc(C)cc4cn[nH]c34)CC2)c1 [Compound Z1464810837]
inhibition at 10 µM (Mtb Lpd [1]): 15.7 ± 4.6%
IC50 (Mtb Lpd [1]): 30 µM

CCN(CC(=O)Nc1cccc(OC)c1)S(=O)(=O)c1cccc2c1NC(=O)CO2 [Compound Z1601661851]
inhibition at 10 µM (Mtb Lpd [1]): 18.5 ± 1.6%
IC50 (Mtb Lpd [1]): 30 µM

CN(CC(=O)Nc1cccc(F)c1)S(=O)(=O)c1cccc2c1NC(=O)CO2 [Compound Z1601662276]
inhibition at 10 µM (Mtb Lpd [1]): 12.7 ± 1.2%
IC50 (Mtb Lpd [1]): 100 µM

CC(=O)Nc1cccc(NC(=O)CN(C)S(=O)(=O)c2cccc(C(F)F)c2)c1 [Compound Z1765676493]
inhibition at 10 µM (Mtb Lpd [1]): 69.1 ± 2.2%
IC50 (Mtb Lpd [1]): 3.5 ± 2.8 µM

COc1ccc(NC(=O)CN(C)S(=O)(=O)c2cc(Br)cnc2N)cc1 [SL827]
Mtb MIC (Mtb [3]): > 100 µM

Cc1cc(S(=O)(=O)N(C)CC(=O)Nc2ccn(C)c(=O)c2)c2[nH]ncc2c1 [TDI-010705]
Mtb MIC (Mtb [2]): 4 µM
Mtb MIC (Mtb [3]): 3.7 µM

Cc1cc(S(=O)(=O)N2CCC[C@H]2C(=O)Nc2ccn(C)c(=O)c2)c2[nH]ncc2c1 [TDI-011002]
IC50 (PDH complex): 0.19 µM
Mtb MIC (Mtb [2]): 25 µM
IC50 (Mtb Lpd [4]): 0.05 µM
Mtb MIC (Mtb [3]): 25 µM
